Results taken from ChEMBL document CHEMBL3885861, “Open TG-GATES”.

Species on record: Rattus norvegicus
Test: Open TG-GATES - Regimen: Daily Repeat
Assay type: toxicity, organism-based, Sprague-Dawley
Set-up: regimen Daily Repeat, gender Male, age 6 weeks
Conditions: in vivo, po, 0 mg/kg, route gavage, dose level Control; for APTT / Bas / Eos / Fbg / Hb / Ht / Lym / MCH / MCHC / MCV / Mono / Neu / PT / Plat / RBC / Ret / WBC: tissue Blood; for KIDNEY_L / KIDNEY_R / KIDNEY_TOTAL: tissue Kidney; for LIVER: tissue Liver; for A/G / ALP / ALT / AST / BUN / CRE / Ca / Cl / DBIL / GLC / IP / K / LDH / Na / PL / RALB / TBIL / TC / TG / TP / gamma-GTP: tissue Plasma

For `Nc1c2c(nc3ccccc13)CCCC2` [TACRINE], the TERMINAL_BW (72 h, time 3 day) was 222.7 g, the APTT (72 h, time 3 day) was 21.1 s and the Bas (72 h, time 3 day) was 0%. It also gave an Eos (72 h, time 3 day) of 1.2%, a Fbg (72 h, time 3 day) of 304 mg/dL and a Hb (72 h, time 3 day) of 13.6 g/dL. The Ht (72 h, time 3 day) was 38.7%, the Lym (72 h, time 3 day) was 80% and the MCH (72 h, time 3 day) was 21.1 pg. It also gave an MCHC (72 h, time 3 day) of 35%, an MCV (72 h, time 3 day) of 60.4 fL and a Mono (72 h, time 3 day) of 3%. For the same compound, the Neu (72 h, time 3 day) was 14.8%, the PT (72 h, time 3 day) was 16.8 s and the Plat (72 h, time 3 day) was 125.8 x10_4/uL. The RBC (72 h, time 3 day) was 641.8 x10_4/ul, the Ret (72 h, time 3 day) was 6.4% and the WBC (72 h, time 3 day) was 108.4 x10_2/uL. For the same compound, the KIDNEY_L (72 h, time 3 day) was 0.9 g, the KIDNEY_R (72 h, time 3 day) was 1 g and the KIDNEY_TOTAL (72 h, time 3 day) was 1.9 g. The LIVER (72 h, time 3 day) was 10.2 g, the A/G (72 h, time 3 day) was 1.3 and the ALP (72 h, time 3 day) was 1665.8 IU/L. It also gave an ALT (72 h, time 3 day) of 51.6 IU/L, an AST (72 h, time 3 day) of 79 IU/L and a BUN (72 h, time 3 day) of 17.4 mg/dL. The CRE (72 h, time 3 day) was 0.2 mg/dL, the Ca (72 h, time 3 day) was 10.9 mg/dL and the Cl (72 h, time 3 day) was 107.2 meq/L. It also gave a DBIL (72 h, time 3 day) of 0.002 mg/dL, a GLC (72 h, time 3 day) of 200.2 mg/dL and an IP (72 h, time 3 day) of 7.4 mg/dL. For the same compound, the K (72 h, time 3 day) was 4.4 meq/L, the LDH (72 h, time 3 day) was 264 IU/L and the Na (72 h, time 3 day) was 142.8 meq/L. The PL (72 h, time 3 day) was 158.4 mg/dL, the RALB (72 h, time 3 day) was 3.1 g/dL and the TBIL (72 h, time 3 day) was 0.01 mg/dL. The TC (72 h, time 3 day) was 72.8 mg/dL, the TG (72 h, time 3 day) was 132.8 mg/dL and the TP (72 h, time 3 day) was 5.6 g/dL. The gamma-GTP (72 h, time 3 day) was 1 IU/L, the TERMINAL_BW ([…], time 7 day) was 252.2 g and the TERMINAL_BW ([…], time 14 day) was 300.3 g. It also gave a TERMINAL_BW ([…], time 28 day) of 378.9 g, an APTT ([…], time 7 day) of 21.6 s and a Bas ([…], time 7 day) of 0%. It also gave an Eos ([…], time 7 day) of 1%, a Fbg ([…], time 7 day) of 289 mg/dL and a Hb ([…], time 7 day) of 13.5 g/dL. It also gave a Ht ([…], time 7 day) of 38.4%, a Lym ([…], time 7 day) of 85% and an MCH ([…], time 7 day) of 21.2 pg. For the same compound, the MCHC ([…], time 7 day) was 35.2%, the MCV ([…], time 7 day) was 60.1 fL and the Mono ([…], time 7 day) was 2.2%. It also gave a Neu ([…], time 7 day) of 11%, a PT ([…], time 7 day) of 16.3 s and a Plat ([…], time 7 day) of 122.6 x10_4/uL. It also gave an RBC ([…], time 7 day) of 639.4 x10_4/ul, a Ret ([…], time 7 day) of 5.5% and a WBC ([…], time 7 day) of 142.5 x10_2/uL. For the same compound, the APTT ([…], time 14 day) was 23 s, the Bas ([…], time 14 day) was 0% and the Eos ([…], time 14 day) was 0.8%. For the same compound, the Fbg ([…], time 14 day) was 323 mg/dL, the Hb ([…], time 14 day) was 15.4 g/dL and the Ht ([…], time 14 day) was 42.9%. It also gave a Lym ([…], time 14 day) of 79.6%, an MCH ([…], time 14 day) of 21.2 pg and an MCHC ([…], time 14 day) of 36%. It also gave an MCV ([…], time 14 day) of 58.8 fL, a Mono ([…], time 14 day) of 2.6% and a Neu ([…], time 14 day) of 16.4%. For the same compound, the PT ([…], time 14 day) was 15.6 s, the Plat ([…], time 14 day) was 117.8 x10_4/uL and the RBC ([…], time 14 day) was 728.8 x10_4/ul. The Ret ([…], time 14 day) was 4%, the WBC ([…], time 14 day) was 91.1 x10_2/uL and the APTT ([…], time 28 day) was 23.1 s. The Bas ([…], time 28 day) was 0%, the Eos ([…], time 28 day) was 1% and the Fbg ([…], time 28 day) was 321 mg/dL. For the same compound, the Hb ([…], time 28 day) was 15.6 g/dL, the Ht ([…], time 28 day) was 41.5% and the Lym ([…], time 28 day) was 83.4%. It also gave an MCH ([…], time 28 day) of 20.8 pg, an MCHC ([…], time 28 day) of 37.6% and an MCV ([…], time 28 day) of 55.3 fL. For the same compound, the Mono ([…], time 28 day) was 1.6%, the Neu ([…], time 28 day) was 13% and the PT ([…], time 28 day) was 16 s. For the same compound, the Plat ([…], time 28 day) was 115 x10_4/uL, the RBC ([…], time 28 day) was 752 x10_4/ul and the Ret ([…], time 28 day) was 2.9%. The WBC ([…], time 28 day) was 108.3 x10_2/uL, the KIDNEY_L ([…], time 7 day) was 1.1 g and the KIDNEY_R ([…], time 7 day) was 1.1 g. For the same compound, the KIDNEY_TOTAL ([…], time 7 day) was 2.1 g, the KIDNEY_L ([…], time 14 day) was 1.2 g and the KIDNEY_R ([…], time 14 day) was 1.2 g. The KIDNEY_TOTAL ([…], time 14 day) was 2.3 g, the KIDNEY_L ([…], time 28 day) was 1.4 g and the KIDNEY_R ([…], time 28 day) was 1.4 g. The KIDNEY_TOTAL ([…], time 28 day) was 2.9 g, the LIVER ([…], time 7 day) was 11.2 g and the LIVER ([…], time 14 day) was 12.4 g. The LIVER ([…], time 28 day) was 15.5 g, the A/G ([…], time 7 day) was 1.2 and the ALP ([…], time 7 day) was 1508 IU/L. It also gave an ALT ([…], time 7 day) of 36 IU/L, an AST ([…], time 7 day) of 67.6 IU/L and a BUN ([…], time 7 day) of 16.8 mg/dL. It also gave a CRE ([…], time 7 day) of 0.2 mg/dL, a Ca ([…], time 7 day) of 10.5 mg/dL and a Cl ([…], time 7 day) of 107.4 meq/L. For the same compound, the DBIL ([…], time 7 day) was 0 mg/dL, the GLC ([…], time 7 day) was 191.6 mg/dL and the IP ([…], time 7 day) was 7.1 mg/dL. It also gave a K ([…], time 7 day) of 4.2 meq/L, an LDH ([…], time 7 day) of 172.8 IU/L and a Na ([…], time 7 day) of 142 meq/L. For the same compound, the PL ([…], time 7 day) was 153.8 mg/dL, the RALB ([…], time 7 day) was 2.9 g/dL and the TBIL ([…], time 7 day) was 0.016 mg/dL. The TC ([…], time 7 day) was 77.6 mg/dL, the TG ([…], time 7 day) was 110 mg/dL and the TP ([…], time 7 day) was 5.4 g/dL. It also gave a gamma-GTP ([…], time 7 day) of 1 IU/L, an A/G ([…], time 14 day) of 1.3 and an ALP ([…], time 14 day) of 1565.4 IU/L. The ALT ([…], time 14 day) was 40 IU/L, the AST ([…], time 14 day) was 72 IU/L and the BUN ([…], time 14 day) was 20.6 mg/dL. The CRE ([…], time 14 day) was 0.2 mg/dL, the Ca ([…], time 14 day) was 10.7 mg/dL and the Cl ([…], time 14 day) was 108 meq/L. For the same compound, the DBIL ([…], time 14 day) was 0 mg/dL, the GLC ([…], time 14 day) was 192.8 mg/dL and the IP ([…], time 14 day) was 6.3 mg/dL. For the same compound, the K ([…], time 14 day) was 4.1 meq/L, the LDH ([…], time 14 day) was 184.8 IU/L and the Na ([…], time 14 day) was 142.2 meq/L. It also gave a PL ([…], time 14 day) of 161.6 mg/dL, an RALB ([…], time 14 day) of 3.3 g/dL and a TBIL ([…], time 14 day) of 0.012 mg/dL. For the same compound, the TC ([…], time 14 day) was 81.8 mg/dL, the TG ([…], time 14 day) was 123.4 mg/dL and the TP ([…], time 14 day) was 6 g/dL. For the same compound, the gamma-GTP ([…], time 14 day) was 1.2 IU/L, the A/G ([…], time 28 day) was 1.1 and the ALP ([…], time 28 day) was 1179.4 IU/L. The ALT ([…], time 28 day) was 38.6 IU/L, the AST ([…], time 28 day) was 61.6 IU/L and the BUN ([…], time 28 day) was 18.6 mg/dL. It also gave a CRE ([…], time 28 day) of 0.2 mg/dL, a Ca ([…], time 28 day) of 10.7 mg/dL and a Cl ([…], time 28 day) of 105.2 meq/L. It also gave a DBIL ([…], time 28 day) of 0 mg/dL, a GLC ([…], time 28 day) of 191.8 mg/dL and an IP ([…], time 28 day) of 5.9 mg/dL. For the same compound, the K ([…], time 28 day) was 4.1 meq/L, the LDH ([…], time 28 day) was 165.2 IU/L and the Na ([…], time 28 day) was 141.6 meq/L. It also gave a PL ([…], time 28 day) of 157.6 mg/dL, an RALB ([…], time 28 day) of 3.2 g/dL and a TBIL ([…], time 28 day) of 0.006 mg/dL. It also gave a TC ([…], time 28 day) of 75.4 mg/dL, a TG ([…], time 28 day) of 144.6 mg/dL and a TP ([…], time 28 day) of 6.2 g/dL. The gamma-GTP ([…], time 28 day) was 1 IU/L.
